According to patent US20260130395A1, “Water Dispersible Botanical Compositions” (Aquila Black Limited, priority 2021, published 2026):

Test: Stability of cannabinoid compounds and Vitamin E components in Beverage 1 (AB White) by LCMSMS
Type: physicochemical
Settings: for Stability of Plant-Derived Cannabinoid Compounds in AB White, 8° C.: AB White stored at 8° C.; for Stability of Plant-Derived Cannabinoid Compounds in AB White, 21-25° C.: AB White stored at 21-25° C.

## C=C(C)[C@@H]1CCC(C)=C[C@H]1c1c(O)cc(CCC)cc1O [CBDV, cannabidivarin]
0 days
  Stability of Plant-Derived Cannabinoid Compounds in AB White, 8° C.: 0.150 µg/mL
  Stability of Plant-Derived Cannabinoid Compounds in AB White, 21-25° C.: 0.150 µg/mL
1 days
  Stability of Plant-Derived Cannabinoid Compounds in AB White, 8° C.: 0.146 µg/mL
  Stability of Plant-Derived Cannabinoid Compounds in AB White, 21-25° C.: 0.149 µg/mL
2 days
  Stability of Plant-Derived Cannabinoid Compounds in AB White, 8° C.: 0.147 µg/mL
  Stability of Plant-Derived Cannabinoid Compounds in AB White, 21-25° C.: 0.148 µg/mL
3 days
  Stability of Plant-Derived Cannabinoid Compounds in AB White, 8° C.: 0.146 µg/mL
  Stability of Plant-Derived Cannabinoid Compounds in AB White, 21-25° C.: 0.149 µg/mL
5 days
  Stability of Plant-Derived Cannabinoid Compounds in AB White, 8° C.: 0.147 µg/mL
  Stability of Plant-Derived Cannabinoid Compounds in AB White, 21-25° C.: 0.144 µg/mL
8 days
  Stability of Plant-Derived Cannabinoid Compounds in AB White, 8° C.: 0.148 µg/mL
  Stability of Plant-Derived Cannabinoid Compounds in AB White, 21-25° C.: 0.145 µg/mL
9 days
  Stability of Plant-Derived Cannabinoid Compounds in AB White, 8° C.: 0.146 µg/mL
  Stability of Plant-Derived Cannabinoid Compounds in AB White, 21-25° C.: 0.148 µg/mL
10 days
  Stability of Plant-Derived Cannabinoid Compounds in AB White, 8° C.: 0.148 µg/mL
  Stability of Plant-Derived Cannabinoid Compounds in AB White, 21-25° C.: 0.147 µg/mL
11 days
  Stability of Plant-Derived Cannabinoid Compounds in AB White, 8° C.: 0.150 µg/mL
  Stability of Plant-Derived Cannabinoid Compounds in AB White, 21-25° C.: 0.150 µg/mL
12 days
  Stability of Plant-Derived Cannabinoid Compounds in AB White, 8° C.: 0.150 µg/mL
  Stability of Plant-Derived Cannabinoid Compounds in AB White, 21-25° C.: 0.152 µg/mL
15 days
  Stability of Plant-Derived Cannabinoid Compounds in AB White, 8° C.: 0.150 µg/mL
  Stability of Plant-Derived Cannabinoid Compounds in AB White, 21-25° C.: 0.151 µg/mL
16 days
  Stability of Plant-Derived Cannabinoid Compounds in AB White, 8° C.: 0.148 µg/mL
  Stability of Plant-Derived Cannabinoid Compounds in AB White, 21-25° C.: 0.145 µg/mL
17 days
  Stability of Plant-Derived Cannabinoid Compounds in AB White, 8° C.: 0.146 µg/mL
  Stability of Plant-Derived Cannabinoid Compounds in AB White, 21-25° C.: 0.150 µg/mL
18 days
  Stability of Plant-Derived Cannabinoid Compounds in AB White, 8° C.: 0.146 µg/mL
  Stability of Plant-Derived Cannabinoid Compounds in AB White, 21-25° C.: 0.151 µg/mL
19 days
  Stability of Plant-Derived Cannabinoid Compounds in AB White, 8° C.: 0.149 µg/mL
  Stability of Plant-Derived Cannabinoid Compounds in AB White, 21-25° C.: 0.148 µg/mL
22 days
  Stability of Plant-Derived Cannabinoid Compounds in AB White, 8° C.: 0.149 µg/mL
  Stability of Plant-Derived Cannabinoid Compounds in AB White, 21-25° C.: 0.148 µg/mL
23 days
  Stability of Plant-Derived Cannabinoid Compounds in AB White, 8° C.: 0.149 µg/mL
  Stability of Plant-Derived Cannabinoid Compounds in AB White, 21-25° C.: 0.148 µg/mL
24 days
  Stability of Plant-Derived Cannabinoid Compounds in AB White, 8° C.: 0.147 µg/mL
  Stability of Plant-Derived Cannabinoid Compounds in AB White, 21-25° C.: 0.145 µg/mL
25 days
  Stability of Plant-Derived Cannabinoid Compounds in AB White, 8° C.: 0.149 µg/mL
  Stability of Plant-Derived Cannabinoid Compounds in AB White, 21-25° C.: 0.145 µg/mL
26 days
  Stability of Plant-Derived Cannabinoid Compounds in AB White, 8° C.: 0.152 µg/mL
  Stability of Plant-Derived Cannabinoid Compounds in AB White, 21-25° C.: 0.149 µg/mL
29 days
  Stability of Plant-Derived Cannabinoid Compounds in AB White, 8° C.: 0.151 µg/mL
  Stability of Plant-Derived Cannabinoid Compounds in AB White, 21-25° C.: 0.147 µg/mL
30 days
  Stability of Plant-Derived Cannabinoid Compounds in AB White, 8° C.: 0.148 µg/mL
  Stability of Plant-Derived Cannabinoid Compounds in AB White, 21-25° C.: 0.151 µg/mL
60 days
  Stability of Plant-Derived Cannabinoid Compounds in AB White, 8° C.: 0.143 µg/mL
  Stability of Plant-Derived Cannabinoid Compounds in AB White, 21-25° C.: 0.149 µg/mL
90 days
  Stability of Plant-Derived Cannabinoid Compounds in AB White, 8° C.: 0.146 µg/mL
  Stability of Plant-Derived Cannabinoid Compounds in AB White, 21-25° C.: 0.143 µg/mL
120 days
  Stability of Plant-Derived Cannabinoid Compounds in AB White, 8° C.: 0.144 µg/mL
  Stability of Plant-Derived Cannabinoid Compounds in AB White, 21-25° C.: 0.141 µg/mL
150 days
  Stability of Plant-Derived Cannabinoid Compounds in AB White, 8° C.: 0.150 µg/mL
  Stability of Plant-Derived Cannabinoid Compounds in AB White, 21-25° C.: 0.146 µg/mL
180 days
  Stability of Plant-Derived Cannabinoid Compounds in AB White, 8° C.: 0.150 µg/mL
  Stability of Plant-Derived Cannabinoid Compounds in AB White, 21-25° C.: 0.141 µg/mL
210 days
  Stability of Plant-Derived Cannabinoid Compounds in AB White, 8° C.: 0.147 µg/mL
  Stability of Plant-Derived Cannabinoid Compounds in AB White, 21-25° C.: 0.142 µg/mL
240 days
  Stability of Plant-Derived Cannabinoid Compounds in AB White, 8° C.: 0.145 µg/mL
  Stability of Plant-Derived Cannabinoid Compounds in AB White, 21-25° C.: 0.145 µg/mL
270 days
  Stability of Plant-Derived Cannabinoid Compounds in AB White, 8° C.: 0.143 µg/mL
  Stability of Plant-Derived Cannabinoid Compounds in AB White, 21-25° C.: 0.148 µg/mL
300 days
  Stability of Plant-Derived Cannabinoid Compounds in AB White, 8° C.: 0.143 µg/mL
  Stability of Plant-Derived Cannabinoid Compounds in AB White, 21-25° C.: 0.142 µg/mL
330 days
  Stability of Plant-Derived Cannabinoid Compounds in AB White, 8° C.: 0.146 µg/mL
  Stability of Plant-Derived Cannabinoid Compounds in AB White, 21-25° C.: 0.144 µg/mL
360 days
  Stability of Plant-Derived Cannabinoid Compounds in AB White, 8° C.: 0.145 µg/mL
  Stability of Plant-Derived Cannabinoid Compounds in AB White, 21-25° C.: 0.146 µg/mL
390 days
  Stability of Plant-Derived Cannabinoid Compounds in AB White, 8° C.: 0.143 µg/mL
  Stability of Plant-Derived Cannabinoid Compounds in AB White, 21-25° C.: 0.146 µg/mL
420 days
  Stability of Plant-Derived Cannabinoid Compounds in AB White, 8° C.: 0.144 µg/mL
  Stability of Plant-Derived Cannabinoid Compounds in AB White, 21-25° C.: 0.143 µg/mL
450 days
  Stability of Plant-Derived Cannabinoid Compounds in AB White, 8° C.: 0.145 µg/mL
  Stability of Plant-Derived Cannabinoid Compounds in AB White, 21-25° C.: 0.144 µg/mL
480 days
  Stability of Plant-Derived Cannabinoid Compounds in AB White, 8° C.: 0.143 µg/mL
  Stability of Plant-Derived Cannabinoid Compounds in AB White, 21-25° C.: 0.143 µg/mL
510 days
  Stability of Plant-Derived Cannabinoid Compounds in AB White, 8° C.: 0.138 µg/mL
  Stability of Plant-Derived Cannabinoid Compounds in AB White, 21-25° C.: 0.139 µg/mL
540 days
  Stability of Plant-Derived Cannabinoid Compounds in AB White, 8° C.: 0.139 µg/mL
  Stability of Plant-Derived Cannabinoid Compounds in AB White, 21-25° C.: 0.140 µg/mL
570 days
  Stability of Plant-Derived Cannabinoid Compounds in AB White, 8° C.: 0.138 µg/mL
  Stability of Plant-Derived Cannabinoid Compounds in AB White, 21-25° C.: 0.138 µg/mL
